{"source": "paper PMC5459304", "about": "(International journal of toxicology, 2017)", "origin": "cited, not measured here", "tested_on": "patients", "data": [{"smiles": "CC1(C)C(/C=C/C=C/C=C/C=C2\\N(CCCCS(=O)(=O)O)c3ccc4ccccc4c3C2(C)C)=[N+](CCCCS(=O)(=O)[O-])c2ccc3ccccc3c21", "note": "[ICG, indocyanine green]", "values": [{"measurement": "severe reaction rate", "setting": "1 severe reaction among 1226 patients", "result": 0.05, "unit": "%"}, {"measurement": "number of reactions", "setting": "1226 patients", "result": "7 reactions out of 1923 ICG angiograms"}, {"measurement": "adverse reaction rate", "setting": "1923 ICG angiograms in 1226 patients", "result": 0.3, "unit": "%"}, {"measurement": "number of severe reactions", "setting": "ICG angiograms from Japanese ophthalmologists", "result": "2 severe reactions among 2820 patients"}]}]}
